Where a SMILES comes first, the peptide text is derived from it. [ ]: non-standard residue; d: D form. Phe(4-I) = N[C@@H](Cc1ccc(I)cc1)C(=O)O
What was measured:
HIF-1α PAS-B domain = biological target: T1, HIF-1α PAS-B domain (Homo sapiens, UniProt Q16665); assay: MST binding to the PAS-B domain of HIF-1α
T1 construct: made in house
Protocol: All reagents were purchased from Fisher Scientific or Sigma Aldrich UK unless specified otherwise.
Restriction enzymes and microbiology reagents were purchased from New England Biolabs Inc., Fisher Scientific (UK) or Promega (UK) and were used as directed by the manufacturer. Primers and oligonucleotides were synthesised by Integrated DNA Technologies (UK). DNA sequencing was carried out by Eurofins MWG Operon (Germany).
Construction of the RTHS and SICLOPPS library, screening, purification of recombinant HIF proteins, and the PLA was conducted as previously described in Miranda et al., J. Am. Chem. Soc., 2013, 135(28); […]
Protein labelling with MST dye
Protein was buffer exchanged from storage buffer into labelling buffer (0.1 M NaHCO3, pH 8.5) using a PD spintrap G-25 column (GE healthcare). The protein concentration was then adjusted to 20 µM.
The commercially sourced MST dye (NanoTemper) was prepared as a 470 µM solution in DMSO, which was then further diluted to 60 µM using labelling buffer. To the protein solution was added an equal volume of dye solution, and the labelling reaction was left for 1 hour in the dark at room temperature.
The labelled protein was separated from unreacted dye by elution through a PD minitrap G-25 column (GE healthcare). Labelled protein was then aliquoted and stored at -80 °C. Extent of labelling was measured by the absorbance obtained using the UV-vis mode on a NanoDrop ND-1000 Spectrophotometer (NanoDrop Technologies, USA).
Labelled protein was thawed on ice and diluted to 50 nM in assay buffer containing 50 mM Tris pH 8.0, 150 mM NaCl, 5% (v/v) glycerol, 1 mM TCEP and 0.05% TWEEN-20. The protein solution was then centrifuged at 12000 rpm for 15 minutes at 4 °C and left on ice. Compounds were prepared and serially diluted in DMSO at 10x assay concentration, before diluting to 2x assay concentration in assay buffer.
The 2x compound solutions were then mixed 1:1 (v/v) with 50 nM labelled protein solution and left to incubate for 1 hour at room temperature. Solutions were then loaded into Monolith NT.115 Premium Capillaries (NanoTemper) and placed in the sample tray. MST experiments were carried out

[1] = tested on: HIF-driven expression of YFP in T-REx-293 reporter cell line; assay: HRE-YFP reporter assay in hypoxia; format: cell-based, human
Excerpt: Following in vitro characterization and optimization of binding, we next assessed the effect of our cyclic peptides in mammalian cells. A cell line with a stably integrated reporter was constructed, in which the expression of yellow fluorescent protein (YFP) was placed under the control of a HRE. Thus, hypoxia would be expected to increase YFP expression (and subsequent fluorescence) in these cells, whereas treatment with a cell-permeable HIF inhibitor would be expected to reduce this fluorescence signal. A fusion cassette was designed containing the YFP gene preceded by three copies of the HRE sequence. This cassette was stably integrated into T-REx-293 cells as previously described.[12] […] The effect of this compound on the viability of T-Rex-293 was assessed with no effect observed at doses up to 75 μM (Figure S9a). […] It should be noted that the relative activity of each compound in this assay will be a combination of its cell permeability and HIF-inhibiting activity. […] We therefore continued to further characterize the cell activity of the 4-iodo-phenylalanine derivative. […]
Generation of HRE-eYFP integrated cell line
The Flp-In System (Fisher) was used to generate a constitutive expression cell line that expresses eYFP under the control of the VEGF HRE. The coding sequence of the yellow fluorescent protein (eYFP) was cloned downstream of the VEGF HRE sequence in the pcDNA5 plasmid, such that the entire cassette was under the regulation of a Tet-On gene expression system. The plasmid was transfected into a human embryonic kidney cell line (Flp-In™-293) and integrated using the manufacturer’s protocol.
Activity Assessment using Flp-In-HRE-eYFP cell line
The Flp-In-HRE-eYFP cells were plated on 24-well plates at 80% confluency and incubated overnight under normoxic conditions. The cells were then treated with different concentrations of compound and incubated for 18 hours under hypoxic conditions. After treatment, the cells were washed with PBS and lysed to extract the total cellular protein. The cell extract was cold centrifuged for 20 minutes at 14,000 RPM. An equal amount of the supernatant from each treatment was plated on a 96-well plate, and the emission of eYFP was measured using a microplate reader. […]

[2] = tested on: CAIX and VEGF genes in Panc-1 cells; assay: qPCR of hypoxia-response genes in Panc-1 cells; format: cell-based; conditions: hypoxic Panc-1 cells, 50 μM, vs DMSO-treated hypoxic cells
Protocol: (§1) The effect of our lead inhibitor on hypoxia-response signaling was measured by qPCR in cancer cell lines. Cells were treated with either 2 μM of an analogue of the HIF-2-specific inhibitor belzutifan, PT2399 (control), or 50 μM of cyclo-CRLII(4-iodo)F, incubated in hypoxia for […], and the levels of the hypoxia-response genes CAIX([41],[42]) and VEGF([43]) were measured by qPCR. We observed a 51% drop in CAIX transcription and a 43% drop in VEGF transcription in hypoxic MCF-7 (breast cancer) cells treated with 50 μM of cyclo-CRLII(4-iodo)F versus hypoxic MCF-7 cells treated with DMSO only (Figure 6e). […] We also observed a 49% drop in CAIX expression in hypoxic HeLa (cervical cancer) cells treated with cyclo-CRLII(4-iodo)F (Figure S9b). […] We observed a 35% drop in HIF-2-driven VEGF transcription in 786-O cells treated with 50 μM of cyclo-CRLII(4-iodo)F compared to a 50% decrease in 786-O cells treated with PT2399. […]
(§2) Realtime PCR (qPCR) Assay
(§3) Cells were plated on 6cm dishes at 80% confluency and incubated overnight under normoxic conditions. The cells were then treated with compound and incubated for 18 hours in hypoxic conditions. After treatment, the cells were washed with PBS and lysed under hypoxic conditions. The total RNA was extracted from the cells using a commercial RNA extraction kit (Fisher Scientific) following the manufacturer's instructions. A commercial reverse transcription kit (Promega) was used to generate cDNA. The MyTaq™ Mix master mix and appropriate primers targeting CAIX and VEGF were used to perform the qPCR reaction using a qPCR machine (Bio-Rad).

VEGF gene in 786-O cells = assay: qPCR of HIF-2-driven VEGF in 786-O cells; format: cell-based; conditions: 50 μM
Protocol: as §1, §2
as §3, with “A commercial reverse transcription kit (Promega) was used to generate cDNA. The MyTaq™ Mix master mix and appropriate primers targeting CAIX and VEGF were used to perform the qPCR reaction using a qPCR machine (Bio-Rad).” left out

T1 sequence (Q16665 238-349 limits assumed): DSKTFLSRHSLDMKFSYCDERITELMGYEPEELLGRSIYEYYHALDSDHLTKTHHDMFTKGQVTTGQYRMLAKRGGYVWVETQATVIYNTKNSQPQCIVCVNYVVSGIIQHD

## CC[C@H](C)[C@@H]1NC(=O)[C@H](CC(C)C)NC(=O)[C@H](CCCNC(=N)N)NC(=O)[C@H](CS)NC(=O)[C@H](Cc2ccc(I)cc2)NC(=O)[C@H]([C@@H](C)CC)NC1=O [cyclo-CRLII(4-iodo)F] (cyclo(CRLII[Phe(4-I)]))
HIF-1α PAS-B domain; MST KD ratio
  improvement in HIF-1α binding affinity compared to the parent cyclic peptide cyclo-CRLIIF: 4.6 fold
HIF-1α PAS-B domain; MST, mean ± SEM, n = 2 (n = 1 for most C1 analogues, n = 3 in Figure S2), read-out: KD for HIF-1α PAS-B
  Kd: 0.8 ± 0.2 µM
[1]; T-REx-293 HRE-YFP reporter, 18 hours, read-out: EC50 for reduction in hypoxia-mediated YFP fluorescence
  EC50: 30.7 ± 2.1 µM
[1]; T-Rex-293 HRE-YFP reporter
  relative activity among the 9 most potent cyclo-CRLIIF derivatives on YFP expression: most active
[2]
  drop in CAIX expression: 41%
  drop in VEGF transcription: 26%
VEGF gene in 786-O cells
  drop in HIF-2-driven VEGF transcription: 35%

From paper PMC10996005, “Identification and Development of Cyclic Peptide Inhibitors of Hypoxia Inducible Factors 1 and 2 That Disrupt Hypoxia-Response Signaling in Cancer Cells” (Journal of the American Chemical Society, 2024)
